The nature of the series: Log P by HPLC on reversed phase columns (EEC directive 79/831 Annex V.A8; methods [a], [b], [c]). The series is classed as physicochemical. Conditions: for chromatographic logP: reversed phase HPLC column. The method, boiled down:
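Reversed-phase HPLC with LC-UV detection, 10→95% acetonitrile linear gradient; aqueous eluent 0.1% formic acid [a], 0.001 M ammonium acetate, neutral [b], or 0.1% phosphoric acid [c]. Calibrated against C3–C16 alkan-2-ones of known Log P by retention-time linear interpolation; multiple values within a method separated by "+".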

Setting [1] is: method [a]: LC-UV, acidic range, 0.1% formic acid in water and acetonitrile as eluent (linear gradient from 10% to 95% acetonitrile).

Regarding `CC(C)(C)C(O)(Cn1cncc1C#N)c1ccc(Cl)cc1Cl` (stereo not shown) [I-310], the LogP is 3.37^[a]. Still for that read-out and setting: the value for `N#Cc1cncn1CC(O)(CC1CC1)c1cc(Cl)c(Cl)c(Cl)c1` (stereo not shown) [I-529] was 3.22^[a]. Regarding `CC(O)(Cn1cncc1Cl)c1cnc(Oc2ccc(Cl)cc2)cc1C(F)(F)F` (stereo not shown) [I-175], the LogP is 2.62^[a].

For `CC(=O)c1cncn1CC(C)(O)c1cnc(Oc2ccc(C(F)(F)F)cc2)cc1Cl` (stereo not shown) [I-246], the LogP is 2.76^[a]. On the same count and under the same terms, the value for `OC(Cn1cncc1F)c1ccc(Oc2ccc(S(F)(F)(F)(F)F)cc2)nc1C(F)(F)F` (stereo not shown) [I-147] was 2.59^[a].

In the case of `N#Cc1cncn1CC(O)c1ccc(Cl)cc1` (stereo not shown) [I-112], the LogP is 1.53^[a].

On to `CC(O)(Cn1cncc1C#N)c1ccc(Oc2ccc(Cl)cc2)cc1C(F)(F)F` (stereo not shown) [I-209], for which the LogP is 3.51^[a]. On the same count and under the same terms, with `OC(Cn1cncc1Cl)c1ccc(Oc2ccc(OC(F)(F)F)cc2)cc1Cl` (stereo not shown) [I-04] the figure was 2.82^[a]; with `N#Cc1cncn1CC(O)(c1cc(Br)ccc1Cl)C1(F)CC1` (stereo not shown) [I-633], 2.45^[a].

As for `OC(Cn1cncc1F)c1ccc(Oc2ccc(Cl)cc2)nc1C(F)(F)F` (stereo not shown) [I-123], the LogP was 2.25^[a]. Same read-out and setting: with `N#Cc1cncn1CC(O)(c1cc(Br)ccc1F)C1(Cl)CC1` (stereo not shown) [I-632] the figure was 2.49^[a]. As to `OC(Cn1cncc1Cl)c1ccc(Oc2ccc(Br)cc2)cc1Cl` (stereo not shown) [I-11], the LogP is 2.75^[a]. Turning to `N#Cc1cncn1CC(O)c1ccc(Oc2ccc(I)cc2)cc1F` (stereo not shown) [I-49], the LogP is 3.24^[a]. Regarding `COC(Cn1cncc1Br)c1ccc(Oc2ccc(Br)cc2)cc1Br` (stereo not shown) [I-51], the LogP was 3.72^[a]. For `N#Cc1cncn1CC(O)(c1cc(Cl)c(Cl)cc1Cl)C1(Cl)CC1` (stereo not shown) [I-562], the LogP is 2.98^[a].

On to `CC(=O)c1cncn1CC(C)(O)c1ccc(Oc2ccc(C(F)(F)F)nc2)nc1C(F)(F)F` (stereo not shown) [I-291], for which the LogP is 2.27^[a]. Consider `CCOC(Cn1cncc1C#N)c1ccc(Oc2ccc(Cl)cc2)cc1Br` (stereo not shown) [I-62], for which the LogP is 4.51^[a]. Turning to `CC(C)CCCC(O)(Cn1cncc1C#N)C1(Cl)CC1` (stereo not shown) [I-599], the LogP was 3.33^[a].

On to `OC(Cn1cncc1Br)c1ccc(Oc2ccc(Br)cc2)cc1C(F)(F)F` (stereo not shown) [I-26], for which the LogP is 3.02^[a]. Consider `N#Cc1cncn1CC(O)c1ccc(Oc2ccc(C(F)(F)F)cc2)nc1C(F)(F)F` (stereo not shown) [I-149], for which the LogP was 3.13^[a].

For the compound `N#Cc1cncn1CC(O)c1ccc(Oc2ccc(Br)cc2)cc1F` (stereo not shown) [I-48], the LogP was 3.04^[a].

Consider `N#Cc1cncn1CC(O)(c1ccc(Br)c(Cl)c1Cl)C1(F)CC1` (stereo not shown) [I-681], for which the LogP was 2.80^[a]. As to `OC(Cn1cncc1Br)c1ccc(Oc2ccc(Cl)cc2)cc1C(F)(F)F` (stereo not shown) [I-29], the LogP was 2.84^[a].

Regarding `CC(C)(C)c1ccc(C#CC(O)(Cn2cncc2C#N)C2(F)CC2)cc1` (stereo not shown) [I-372], the LogP was 3.39^[a]. On to `CC(O)(Cn1cncc1Br)c1ccc(Oc2ccc(Cl)cc2)cc1Br` (stereo not shown) [I-170], for which the LogP was 2.80^[a].

For the compound `N#Cc1cncn1CC(O)c1ccc(Oc2ccc(S(F)(F)(F)(F)F)cc2)nc1C(F)(F)F` (stereo not shown) [I-146], the LogP was 3.35^[a].

In the case of `Cc1ccc(C#CC(O)(Cn2cncc2C#N)C2(Cl)CC2)cc1` (stereo not shown) [I-293], the LogP was 2.82^[a]. Consider `CCOC(Cn1cncc1F)c1cnc(Oc2ccc(Cl)cc2)cc1C(F)(F)F` (stereo not shown) [I-132], for which the LogP was 3.15^[a]. On the same count and under the same terms, the value for `OC(Cn1cncc1Cl)c1ccc(Oc2ccc(OC(F)(F)F)cc2)c(Br)c1` (stereo not shown) [I-05] was 2.82^[a]; that for `N#Cc1cncn1CC(O)(c1ccc(F)cc1)C1CC1` (stereo not shown) [I-411] was 1.98^[a].

Consider `C=CCC(O)(Cn1cncc1C#N)C1(Cl)CC1` (stereo not shown) [I-669], for which the LogP was 1.98^[a]. Regarding `CC(C)C(O)(Cn1cncc1C#N)c1ccc(Cl)cc1` (stereo not shown) [I-288], the LogP is 2.31^[a]. As to `N#Cc1cncn1CC(O)(c1cc(F)cc(F)c1)C1(F)CC1` (stereo not shown) [I-473], the LogP was 2.14^[a]. On to `CC(C)C(O)(Cn1cncc1C#N)c1ccc(Cl)cc1Br` (stereo not shown) [I-416], for which the LogP is 3.02^[a]. As to `C[Si](C)(C)CC(O)(Cn1cncc1C#N)c1ccc(Cl)cc1` (stereo not shown) [I-224], the LogP is 3.35^[a]. For `N#Cc1cncn1CC(O)(c1ccc(F)c(F)c1F)C1(F)CC1` (stereo not shown) [I-634], the LogP was 2.18^[a].

Take `N#Cc1cncn1CC(O)(c1ccc(Cl)cc1F)C1CC1` (stereo not shown) [I-413]: the LogP was 2.50^[a]. Consider `N#Cc1cncn1CC(O)c1ccc(Oc2ccc(Cl)nc2)cc1C(F)(F)F` (stereo not shown) [I-10], for which the LogP was 2.59^[a]. On the same count and under the same terms, the value for `N#Cc1cncn1CC(O)c1cnc(Oc2ccc(OC(F)(F)F)cc2)cc1C(F)(F)F` (stereo not shown) [I-125] was 3.35^[a]. On to `N#Cc1cncn1CC(O)(CC1CC1)c1cc(F)c(F)cc1F` (stereo not shown) [I-514], for which the LogP is 2.36^[a].

In the case of `N#Cc1cncn1CC(O)(C#CC1CC1)C1(Cl)CC1` (stereo not shown) [I-692], the LogP was 2.11^[a].

As for `CCc1cc(Cl)ccc1C(O)(Cn1cncc1C#N)C1(Cl)CC1` (stereo not shown) [I-335], the LogP was 3.00^[a]. On the same count and under the same terms, the value for `CC(=O)OC(Cn1cncc1F)c1ccc(Oc2ccc(Cl)cc2)cc1C(F)(F)F` (stereo not shown) [I-104] was 3.18^[a]; that for `CC(O)(Cn1cncc1C#N)c1cnc(Oc2ccc(C(F)(F)F)cc2)cc1Cl` (stereo not shown) [I-254] was 3.21^[a]. Take `N#Cc1cncn1CC(O)(c1ccc(Cl)cc1F)C1(Cl)CC1` (stereo not shown) [I-358]: the LogP is 2.57^[a]. As to `CC(O)(Cn1cncc1C#N)c1ccc(Oc2ccc(Cl)cc2F)nc1C(F)(F)F` (stereo not shown) [I-279], the LogP was 3.14^[a]. As to `N#Cc1cncn1CC(O)(CC1CC1)c1cccc(F)c1F` (stereo not shown) [I-517], the LogP was 2.20^[a]. As for `CC(C)(C)CC(O)(Cn1cncc1C#N)c1ccc(F)cc1F` (stereo not shown) [I-238], the LogP was 3.06^[a]. As to `N#Cc1cncn1CC(O)c1cnc(Oc2ccc(C(F)(F)F)cc2)cc1Br` (stereo not shown) [I-130], the LogP is 3.13^[a]. With `N#Cc1cncn1CC(O)(c1ccc(Br)cc1Cl)C1(Cl)CC1` (stereo not shown) [I-333], the LogP was 2.73^[a].

For the compound `N#Cc1cncn1CC(O)(c1ccc(C(F)(F)F)cc1Cl)C1(Cl)CC1` (stereo not shown) [I-264], the LogP was 2.80^[a]. For the compound `N#Cc1cncn1CC(O)(CCCC1CCCCC1)C1CCC1` (stereo not shown) [I-665], the LogP is 4.16^[a].

Regarding `N#Cc1cncn1CC(=O)c1ccc(Cl)s1` [IX-125], under setting [1], the chromatographic logP is 1.88.

For `C[Si](C)(C)C=CC(O)(Cn1cncc1C#N)C1(F)CC1` (stereo not shown) [I-679], the LogP is 2.77^[a]. In the case of `N#Cc1cncn1CC(=O)c1ccco1` [IX-146], under setting [1], the chromatographic logP stood at 0.92. For `COC(Cn1cncc1C#N)c1ccc(Oc2ccc(Cl)cc2)cc1F` (stereo not shown) [I-60], the LogP was 3.65^[a]. Regarding `N#Cc1cncn1CC(=O)c1cnc(Oc2ccc(C(F)(F)F)nc2)cc1C(F)(F)F` [IX-105], the chromatographic logP under setting [1] was 2.82. With `C[Si](C)(C#CC(O)(Cn1cncc1C#N)C1(F)CC1)c1ccccc1` (stereo not shown) [I-595], the LogP was 3.04^[a]. As for `N#Cc1cncn1CC(O)(C#CCC1CCCCC1)CC1CC1` (stereo not shown) [I-428], the LogP was 3.29^[a]. Still for that read-out and setting: the value for `N#Cc1cncn1CC(O)(c1cc(F)c(Cl)cc1F)C1(Cl)CC1` (stereo not shown) [I-583] was 2.66^[a]. `N#Cc1cncn1CC(O)(C=CC1CCCCC1)C1(Cl)CC1` (stereo not shown) [I-663, 1-[2-(1-chlorocyclopropyl)-4-cyclohexyl-2-hydroxybut-3-en-1-yl]-1H-imidazole-5-carbonitrile] yielded a chromatographic logP (method [a], HPLC on reversed phase columns) of 3.48. As to `OC(Cn1cncc1Cl)c1ccc(Oc2ccc(I)cc2)cc1Br` (stereo not shown) [I-101], the LogP is 2.80^[a]. Turning to `OC(C#CCC1CCCCC1)(Cn1cncc1C(F)(F)F)C1(Cl)CC1` (stereo not shown) [I-601], the LogP was 4.05^[a].

Turning to `CC(O)(Cn1cncc1Cl)c1ccc(Oc2ccc(Br)cn2)cc1Cl` (stereo not shown) [I-204], the LogP is 2.32^[a].

`N#Cc1cncn1CC(O)(CCCC1CCCCC1)C1CC1` (stereo not shown) [I-661]: the LogP was 3.83^[a]. As for `N#Cc1cncn1CC(O)(c1ccc(C#CC2CCCC2)cc1Cl)C1(F)CC1` (stereo not shown) [I-640], the LogP was 4.01^[a]. For `CCCC(O)(Cn1cncc1C#N)c1ccc(F)cc1Cl` (stereo not shown) [I-402], the LogP was 2.73^[a]. In the case of `N#Cc1cncn1CC(O)(c1cc(Cl)ccc1Cl)C1(F)CC1` (stereo not shown) [I-623], the LogP was 2.39^[a]. The same measure, in the same setting: the value for `CC(O)(Cn1cncc1F)c1ccc(Oc2ccc(Cl)cc2)cc1Cl` (stereo not shown) [I-194] was 2.34^[a]. Regarding `N#Cc1cncn1CC(O)(c1ccc(F)cc1Cl)C1CC1` (stereo not shown) [I-412], the LogP was 2.41^[a]. Take `N#Cc1cncn1CC(O)(c1ccc(F)cc1F)C1CC1` (stereo not shown) [I-410]: the LogP is 2.18^[a].

Take `N#Cc1cncn1CC(O)(CC1CC1)c1ccc(C(F)(F)F)cc1Br` (stereo not shown) [I-436]: the LogP was 2.90^[a]. Take `N#Cc1cncn1CC(O)c1ccc(Oc2ccccc2)cc1F` (stereo not shown) [I-99]: the LogP is 2.54^[a].

Regarding `OC(Cn1cncc1Br)c1ccc(Oc2ccc(Cl)cc2)cc1` (stereo not shown) [I-18], the LogP was 2.23^[a]. Still for that read-out and setting: with `C[Si](C)(C)C#Cc1ccc(C(O)(Cn2cncc2C#N)C2(Cl)CC2)c(F)c1` (stereo not shown) [I-650] the figure was 4.03^[a]. The same measure, in the same setting: with `O=C(Cn1cncc1F)c1ccc(Oc2ccc(Cl)cc2)nc1C(F)(F)F` [IX-106] the figure was 2.59^[a].

Turning to `CC(=O)c1cncn1CC(=O)c1cnc(Oc2ccc(Cl)cc2F)cc1C(F)(F)F` [IX-102], under setting [1], the chromatographic logP worked out at 3.21. Turning to `N#Cc1cncn1CC(O)(c1cc(Cl)cc(F)c1F)C1(Cl)CC1` (stereo not shown) [I-611], the LogP is 2.54^[a]. On the same count and under the same terms, the value for `C/C=C(\C)C(O)(Cn1cncc1C#N)c1ccc(Cl)cc1F` (stereo not shown) [I-397] was 2.73^[a]. On to `CCOC(Cn1cncc1C(N)=O)c1ccc(Oc2ccc(Cl)cc2)cc1C(F)(F)F` (stereo not shown) [I-83], for which the LogP was 2.54^[a]. Still for that read-out and setting: with `N#Cc1cncn1CC(O)(c1cc(Cl)c(F)cc1F)C1(Cl)CC1` (stereo not shown) [I-586] the figure was 2.61^[a]. `CC(O)(Cn1cncc1Cl)c1ccc(Oc2ccc(Cl)cc2)cc1Br` (stereo not shown) [I-171]: the LogP is 2.82^[a].

The term chromatographic logP denotes lipophilicity estimated from chromatographic retention. A high value points to a more lipophilic compound.

The values above are taken from patent US20200031778A1, “NOVEL 5-SUBSTITUTED IMIDAZOLYLMETHYL DERIVATIVES” (Bayer CropScience Aktiengesellschaft, priority 2016, published 2020).
